Assay results taken from publication PMC4674085, “Towards Prebiotic Catalytic Amyloids Using High Throughput Screening” (PLoS ONE, 2015).

Assays:
[1] = Plate reader 4NPA hydrolysis kinetics of purified peptide amyloids at pH 7.3; type: biochemical; conditions: 4NPA hydrolysis, pH 7.3 HEPES with zinc(II), 20 μM purified peptide
Method: The reaction buffer consisted of the same buffer as the fibrillization buffer without ZnCl2 and with 1.33 mM 4NPA prepared from a 100 mM stock in CH3CN. The samples of the amyloid library were mixed 1:3 with the reaction buffer yielding 40 μM peptide and, when present 250 μM zinc(II). The absorbance measurements were performed in a BMG Pherastar platereader with a 400 nm band-pass filter (10 nm bandwidth) in 96-well Nunclon Delta surface plates or 384-well Greiner Bio-One non-bind black μclear plates.
The kinetics assays performed on the purified peptides were prepared similarly except that the peptide concentration was 20 μM in the reaction. Furthermore, the various substrate concentrations and replicate samples were randomly distributed over the plate to minimize systematic errors. Various 4NPA concentrations (i.e. 0.1 mM, 0.2 mM, 0.4 mM, 0.6 mM, 1.0 mM) were added from a 100 times stock so that the final CH3CN concentration was always 1%. The linear part of the hydrolysis activity was fit with an extinction coefficient of ε = 9700 M^-1cm^-1 and corrected for the background reaction rate of buffer alone (v bg = 5.0 × 10^-6 Ms^-1) to obtain the initial reaction rate v 0. The average of the initial reaction rates at each substrate concentration were then fit to the Michaelis-Menten type kinetics to obtain k cat, K M and k cat/K M always calculated per monomer peptide. The background reaction rate was obtained similarly using 5 replicates.

[2] = Time-dependent 4NPA hydrolysis rate during fibrillization; type: biochemical; conditions: 50 μM peptide, 50 mM HEPES pH 7.3, 0.5 mM ZnCl2, 1 mM 4NPA, derivative of A400
Method: For more direct evidence that the amyloid is the catalytically active state, we attempted to measure the catalysis rate during the aggregation of 35 in order to correlate the amyloid formation with an increase in hydrolytic activity. Since the aggregation is too fast to measure a steady-state hydrolysis rate, an instantaneous time-dependent rate of 4NPA hydrolysis was calculated from the derivative of the A400 measurements (Fig 3A). In parallel, an identical sample was monitored at 218 nm for the β-strand-typical ellipticity (Fig 3C). Note that the absorbance of 50 mM HEPES prevented the measurement of a full spectrum (190–260 nm) under the identical aggregation conditions, however when performed with 10 mM HEPES, the spectrum clearly indicates a move towards increasing β-structure upon mixing the peptide with buffer at pH 7.3 (Figure B in S1 File). […]
Fig 3 Parallel kinetics of fibrillization and hydrolysis activity. Kinetics of fibrillization measured by CD (c) matches the appearance of the 4NPA hydrolysis activity (a). a) A stock of 35 at 200 μM in 10 mM HCl was diluted to a final concentration of 50 μM into 50 mM HEPES pH 7.3 with 0.5 mM ZnCl2 and 1 mM 4NPA. After ca. 10 s mixing time, the hydrolysis of 4NPA was recorded every 1 s for 20 min at 400 nm and the first derivative of this signal (the instantaneous rate) is plotted as a function of time. […]

[3] = Circular dichroism (CD), secondary structure of aggregates; type: physicochemical; conditions: 50 μM peptide in 10 mM HCl, time-stable spectrum

CD spectrum in 10 mM HCl [3]: mostly random coil
Substance: Ac-YVHVHVAV-NH2 [Peptide 35, Ac-YVHVHVAV-CONH2]
k cat/K M ([1]; 0.1-1.0 mM 4NPA, 1% CH3CN, A400, Michaelis-Menten fit, per monomer peptide, triplicate (duplicate for 8, 27, 34, 35)): 7.38 ± 0.63 M⁻¹ s⁻¹ | K M ([1]; Michaelis-Menten fit): 630 ± 100 µM | k cat ([1]; Michaelis-Menten fit, per monomer peptide): 0.463±0.039 10^-2s^-1 | activity of the monomeric peptide (by extrapolation to t = 0) [2]: not significantly above the background hydrolysis
